The results in this text go back to patent US8722712B2, “Substituted aryl 1 ,2,4-oxadiazoles derivatives as sphingosine-1 phosphate receptors modulators” (Allergan, Inc., priority 2012, dated 2014).

This experiment addresses T1, human S1P1 receptor (Homo sapiens, UniProt P21453).
T1 construct: expressed in transfected cells; membranes used
The experiment can be described thus: GTP γ35S binding assay for S1P1 activity. The experiment is classed as biochemical. The settings on record: membranes of cells stably expressing the S1P1 receptor, test compounds 0.08 to 5,000 nM. The method, then:
Compounds were synthesized and tested for S1P1 activity using the GTP γ^355 binding assay. These compounds may be assessed for their ability to activate or block activation of the human S1P1 receptor in cells stably expressing the S1P1 receptor.
[…] binding was measured in the medium containing (mM) HEPES 25, pH 7.4, MgCl2 10, NaCl 100, dithitothreitol 0.5, digitonin 0.003%, 0.2 nM GTP γ^35S, and 5 μg membrane protein in a volume of 150 μl. Test compounds were included in the concentration range from 0.08 to 5,000 nM unless indicated otherwise. Membranes were incubated with 100 μM 5′-adenylylimmidodiphosphate for 30 min, and subsequently with 10 μM GDP for 10 min on ice. Drug solutions and membrane were mixed, and then reactions were initiated by adding GTP γ^35S and continued for 30 min at 25° C. Reaction mixtures were filtered over Whatman GF/B filters under vacuum, and washed three times with 3 mL of ice-cold buffer (HEPES 25, pH7.4, MgCl2 10 and NaCl-100). Filters were dried and mixed with scintillant, and counted for ^35S activity using a […]. Agonist-induced GTP γ^35S binding was obtained by subtracting that in the absence of agonist. Binding data were analyzed using a non-linear regression method. In case of antagonist assay, the reaction mixture contained 10 nM […] in the presence of test antagonist at concentrations ranging from 0.08 to 5000 nM.
Background: Binding of GTPγS marks nucleotide exchange on a G protein.

As a reminder, the EC50 is the concentration giving half of the maximal effect.

T1 sequence (P21453 whole entry): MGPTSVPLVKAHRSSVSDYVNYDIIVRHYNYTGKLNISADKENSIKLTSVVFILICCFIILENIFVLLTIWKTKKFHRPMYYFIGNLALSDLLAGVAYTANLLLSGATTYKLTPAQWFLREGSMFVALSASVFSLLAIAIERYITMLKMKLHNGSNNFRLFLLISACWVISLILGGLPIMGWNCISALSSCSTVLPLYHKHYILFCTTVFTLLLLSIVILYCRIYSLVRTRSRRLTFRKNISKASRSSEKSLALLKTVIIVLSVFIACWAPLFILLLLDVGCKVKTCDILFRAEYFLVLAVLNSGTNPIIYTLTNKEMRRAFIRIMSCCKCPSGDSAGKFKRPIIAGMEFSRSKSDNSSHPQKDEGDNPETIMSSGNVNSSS

`O=P(O)(O)CCCNCc1ccc(-c2noc(CCCCc3ccccc3)n2)c(-c2ccco2)c1` [Compound 7, [3-({3-(2-Furyl)-4-[5-(4-phenylbutyl)1,2,4-oxadiazol-3-yl]benzyl}amino)propyl]phosphonic acid]: the EC50 stood at 217 nM. This counts as sub-micromolar. In turn, `O=P(O)(O)CCCNCc1ccc(-c2noc(CCCCc3ccccc3)n2)cc1` [Compound 4, [3-({4-[5-(4-Phenylbutyl)-1,2,4-oxadiazol-3-yl]benzyl}amino)propyl]phosphonic acid] had an EC50 of 63.1 nM. Regarding `O=P(O)(O)CCCNCc1ccc(-c2noc(CCCCc3ccccc3)n2)c(F)c1` [Compound 2, [3-({3-Fluoro-4-[5-(4-phenylbutyl)-1,2,4-oxadiazol-3-yl]benzyl}amino)propyl]phosphonic acid], the EC50 is 23.8 nM. The value for `O=C(O)CCNCc1ccc(-c2noc(CCCCc3ccccc3)n2)cc1` [3-({4-[5-(4-Phenylbutyl)-1,2,4-oxadiazol-3-yl]benzyl}amino)propanoic acid] was 606 nM. `CCc1cc(-c2noc(CCCCc3ccccc3)n2)ccc1CNCCCP(=O)(O)O` [Compound 1, [3-({2-Ethyl-4-[5-(4-phenylbutyl)-1,2,4-oxadiazol-3-yl]benzyl}amino)propyl]phosphonic acid] had an EC50 of 79.2 nM. Against the preceding compound, the EC50 is about 7.7-fold lower. Consider `O=P(O)(O)CCCNCc1ccc(-c2noc(CCCCc3ccccc3)n2)c(Br)c1` [Compound 3, [3-({3-Bromo-4-[5-(4-phenylbutyl)-1,2,4-oxadiazol-3-yl]benzyl}amino)propyl]phosphonic acid], for which the EC50 amounted to 16.9 nM. This EC50 lies about 4.7-fold lower than the previous one.
